SMILES strings stand for the structures.

One test relates to Towne strain HCMV. The test can be described thus: HCMV titer reduction assay in HEL fibroblasts. It counts as cell-based, Human Cytomegalovirus. As to conditions: HEL fibroblasts infected with HCMV, supernatant day 6 postinfection, plaque assay. As to the method: Cell culture studies are performed to establish activity of DIM-related indoles alone and in combination with GFR's as inhibitors of HCMV replication in an in vitro model relevant to human infection.
Cell culture and viral infection. Human embryonic lung (HEL) fibroblasts are cultured in Eagle's minimal essential media (EMEM) (Gibco, BRL) supplemented with 10% fetal bovine serum (FBS) plus antibiotics.
Towne strain HCMV (passages 36 to 40) is propagated in HEL fibroblasts as previously described (Kowalik et al., 1993, Proc. Natl. Acad. Sci. USA 90:1107-1111).
For infection, cells are grown to confluence and then are serum starved for 48 h in minimal essential media (MEM) plus antibiotics. Cells are infected with HCMV that had been purified through a sucrose cushion to eliminate cytokines and growth factor contamination. Seeding of cells using a multiplicity of infection of 2-5 PFU per cell is used.
At the indicated time after infection, cells are washed once and then are maintained in MEM plus antibiotics until they are harvested. Cells are pretreated for 1 h with the listed compound or combinations of compounds prior to infection. […]
Titer reduction assay. The levels of active virus during the culture period are determined using a Titer Reduction Assay. […] HCMV plaque numbers are scored under an inverted microscope.

Test [1] relates to TRAMP-C2 prostate cancer cells. It counts as in vivo. Particulars: C57BL/6 mice, gavage once daily 5 days per week, 4 weeks.
Method: METHODS: TRAMP-C2 cells, a mouse PC cell line are obtained from the American Type Culture Collection (Rockville, Md.). Six week old male C57BL/6 mice are purchased from Harlan Laboratories (Harlan, USA). TRAMP-C2 cells are suspended in media and aliquots are injected into the flank of male C57BL/6 mice using a 27 gauge needle. Two weeks after tumor transplantation when tumors appear, mice are divided in six groups treated as indicated:
Animals are dosed by gavage once daily, 5 days per week. Tumor volumes are measured weekly for 4 weeks following transplantation using calipers. Later, the tumors are removed, their final weights and volumes are measured. […] Tumor volumes in mm^2 are determined during the study using the formula π/6×larger diameter×(smaller diameter)^2. The data are expressed as the increase or decrease in tumor volume in mm^3. Histological studies are performed to assess the contribution of apotosis promotion in the reduction of tumor volume in treated groups.

As for `c1ccc2c(Cc3c[nH]c4ccccc34)c[nH]c2c1` [Diindolylmethane, 3,3′-diindolylmethane], the viral titers result in the test on Towne strain HCMV is recorded as “significant decrease”. The “tumor growth (tumor volumes compared to control group)” value in test [1] is given as “inhibition of tumor growth”. Regarding `COc1cc2ncnc(Nc3ccc(F)c(Cl)c3)c2cc1OCCCN1CCOCC1` [Gefitinib, N-(3-chloro-4-fluorophenyl)-7-methoxy-6-(3-morpholinopropoxy)quinazolin-4-amine, reference compound], in test [1], the “tumor growth (tumor volumes compared to control group)” value is “inhibition of tumor growth”.

The record behind these values is US20060111423A1, “Use of diindolylmethane-related indoles and growth factor receptor inhibitors for the treatment of human cytomegalovirus-associated disease” (priority 2004, published 2006).
